Results: US7550438B2, “Methods for production of growth-promoting proteins and peptides for kidney epithelial cells” (The University of Chicago, priority 1997, dated 2009)

What was measured:
[1] = system: rats with mercuric chloride-induced acute renal failure; assay: Mercuric chloride-induced acute renal failure in rats: survival and renal function; format: in vivo, rat
Description: Nephrotoxic and ischemic acute renal failure (ARF) induced experimentally in rats have long been used to model this syndrome in humans. […] Male rats weighed 200-225 gm at the start of the experiment. This dose was used because preliminary experiments indicated it results in survival of 25-50% of the animals 7 days later. […] An increase in serum creatinine concentration signals a decline in renal function because the injured kidney is unable to excrete endogenous creatinine in the urine so it accumulates in the blood.
The synthetic peptide […] (14-Ser) (SEQ ID NO: 15) (dissolved in sterile 0.01% bovine serum albumin in phosphate-buffered saline) was injected subcutaneously into rats to determine its effect on survival, recovery of renal fucntion, and stimulation of DNA synthesis. Multiple different peptides were studied including 14-Ser, […] (14-mer) (SEQ ID NO: 39), […] (16-mer) (SEQ ID NO: 4) […] (11-mer) (SEQ ID NO: 6), and […] (11-mer) (SEQ ID NO: 41). Different concentrations and times of administration were tested and compared.
Acute tubular necrosis was induced in 44 rats by the subcutaneous (s.c.) injection of mercuric chloride, and a single dose of 14-ser was administered s.c. 1 hour afterwards. Different amounts of the peptide were given to assesses its capacity to affect the outcome. Survival 7 days later was about twice as high in animals given 100-150 μg of peptide (63%) than in rats given 0-75 μg peptide (29%).
To determine the effect of the peptide on survival and recovery of renal function, acute tubular necrosis was induced in 59 rats; 29 received 14-Ser (100 μg/rat) and 30 received an equal volume of the vehicle s.c. 1 hour after administration of mercuric chloride. Enhanced survival (top panel) and renal functional recovery (bottom panel) of rats give a WGF-derived peptide after mercuric chloride-induced acute tubular necrosis are shown in FIG. 2A and FIG. 2B. Mercuric chloride was injected subcutaneously into each of the 59 rats, and 1 hour later 100 μg of WGF peptide (14-Ser) (n=29 rats) or the vehicle […] was given. Survival was greater in rats given the peptide than in animals receiving the vehicle as early as day 3 after administration of mercuric chloride. Blood was obtained from the tail vein on the days indicated, and serum creatinine concentration was measured. […] On days 2, 3 and 4, the lower creatinine concentration in peptide-treated rats indicates accelerated recovery of kidney function.
Experimental ARF was induced in rats by subcutaneous injection of mercuric chloride. The synthetic peptide […] […] In one experiment a total of 17 rats were injected with a dose of mercuric chloride shown to induce ARF. The different amounts of the peptide (known to stimulate growth of kidney cells in culture) were injected into the animals to assess capacity to improve the outcome. […] In contrast, two of three rats given 100 micrograms of peptide were alive, as were five of six given 200 micrograms. In summary, none of eight rats (0%) given up to 50 micrograms of peptide survived, whereas seven of nine (78%) given 100-200 micrograms did. Thus, the 11-mer WGF peptide improves survival in nephrotoxic ARF.
[…] Four days later, 63% of rats given the 14-Ser peptide were alive compared to 25% of animals receiving the vehicle (chi squared, P-0.0499); 50% of rats receiving EGF were alive (chi squared, P=N.S.). On day 5, 50% of rats given EGF were alive, compared to 12.5% of animals given the vehicle (chi squared, P=0.0436). […] These observations indicate that the 14-Ser peptide and EGF given after renal injury are similar in their ability to improve survival from the ARF syndrome.

BSC-1 cells [2] = assay: Time of contact with cells required to commit them to accelerated growth (washout, count at four days); format: cell-based, African green monkey; conditions: peptide then washed off, cells counted four days later
Description: Confluent monolayers of BSC-1 cells are prepared as herein and exposed to the 14-Ser peptide (0.5 μg/ml) for different amounts of time (0 to 30 minutes). At the end of the defined exposure period, culture medium containing the mitogen was aspirated, the monolayer was rinsed to remove non-adherent peptide, and fresh medium was added. Four days later the number of cells in the culture was counted.
In these experiments a solution containing the peptide of interest was added to the cell monolayer; culture medium was then aspirated at a specified time thereafter. Then fresh medium without the peptide was added and the number of cells was counted four days later.

[3] = system: monkey kidney epithelial cells of the BSC-1 line; assay: Growth-promoting (mitogenic) activity: number of cells in BSC-1 cultures counted four days after addition; format: cell-based, African green monkey
Description: For the assay, cells were detached from the dish with a solution of trypsin and an aliquot was counted in a hemocytometer.
Nontransformed monkey kidney epithelial cells of the BSC-1 line were grown to confluence in Dulbecco's modified Eagle's medium containing 1% calf serum and […] in 55-mm culture dishes at 38° C. in a CO2 incubator. When cells achieved a density of about 10^6 per dish, the spent medium was removed and replaced with fresh medium containing 0.5% calf serum and the 14-amino acid peptide (0.5 μg/ml). Additions of each of the mitogenic signals at maximal concentration were made to the culture medium. Four days later the number of cells in each culture was counted in a hemocytometer. Values obtained were the mean of 3 separate cultures.
Nontransformed monkey kidney epithelial cells of the BSC-1 line were grown to confluence in Dulbecco's modified Eagle's medium containing 1% calf serum and 1.6 μM biotin at 38° C. in a CO2 incubator. When cells achieved a density of about 10^6 per dish, the spent medium was removed and replaced with fresh medium containing 0.5% calf serum and different amounts of the two peptides. Four days later the number of cells in each culture was counted. Each value is the mean of 3 separate cultures.
To delineate the sequence of the smallest peptide that could stimulate renal cell growth, synthetic peptides of different lengths were prepared (see below), and purified by reversed-phase HPLC on a C18 column.
The peptide of interest was then purified on a reversed-phase C18 column HPLC as described herein using a gradient of 1-80% acetonitrile in 0.1% trifluroacetic acid (TFA). The purified peptide was then lyophilized to remove the acetonitrile and TFA and the lyophilized powder was weighed, dissolved in buffer and added to the culture medium to measure its effect on the growth of monkey kidney epithelial cells as described herein. […] A value termed the K1/2, was used.

BSC-1 cells [4] = assay: Appearance or release of WGF growth-promoting activity from BSC-1 cells (scrape wounding, heparinase); format: cell-based, African green monkey; conditions: for appearance of growth-promoting activity after wounding: cells preincubated 10 minutes with the protease inhibitor
Description: None of these agents inhibited cell growth when added to cells of nonwounded cultures. When added to the medium after the appearance of WGF mitogenic activity, neither PMSF nor aprotinin appeared to inhibit the increment in cell proliferation.
Confluent monolayer cultures were mechanically scraped using a 200 μL pipet tip (Continental Laboratory Products, San Diego, Calif.). […] (This process of scraping the cells has been termed “wounding” and has been used for many years as a model system to study repair of corneal abrasions of the eye. In effect, pressure is applied to cells sufficient to disrupt intercellular adhesion). To determine whether kidney epithelial cells released an autocrine growth factor into the medium after wounding, conditioned culture medium was removed from the culture dish after scrape-wounding a monolayer of BSC-1 cells. An aliquot was assayed for any growth-promoting activity on a nonwounded “detector” culture (1.2×10^6 cells per […]).
Treatment of a confluent monolayer of BSC-1 cells with the enzyme heparinase I (Sigma), but not heparinase III (Sigma), releases WGF mitogenic activity from cells into the culture media. However, this seems to deplete WGF, at least temporarily. When cells are first treated with heparinase I, rinsed, the media aspirated, and the monolayer is then scrape-wounded, no growth-promoting activity is detected in the conditioned media.

Which “survival on day 6” value ([1]; 14-Ser 100 μg 1 hour after, EGF 20 μg 2 hours after mercuric chloride, vehicle 12%) does the source give for “epidermal growth factor [EGF, reference compound]” here?
The value was 37.5%.

And the “survival four days later” value ([1]; 14-Ser 100 μg s.c. 1 hour after, EGF 20 μg s.c. 2 hours after mercuric chloride 2.25 mg/kg, vehicle 25%)?
Its value is 50%.

And the “survival on day 5” value ([1]; EGF 20 μg s.c. 2 hours after mercuric chloride, vehicle 12.5%)?
The value was 50%.

What about the “survival on day 4” value ([1]; given 24 hours before mercuric chloride (EGF 20 μg, s.c.)) of the same molecule?
The value was 25%.

What about the “exposure time sufficient for maximal growth stimulation (commitment time)” value (BSC-1 cells [2]) of the same molecule?
Its value is 4 min.

What about the “concentration equivalent in mitogenic potency to partially-purified WGF” value [3] of the same molecule?
Its value is 0.015 µg/mL.

What about the “stimulation of growth (increase in cell number compared to control at four days)” value ([3]; agent alone at maximal mitogenic concentration (14-Ser 0.5 μg/ml; EGF, IGF-I 50 ng/ml; acidic FGF 100 pg/ml; basic FGF 1,000 pg/ml; vasopressin 75 pg/ml; K 10.4 mM; Na 180 mM)) of the same molecule?
The value was 31%.

What about the “combined mitogenic effect with WGF (additivity)” value ([3]; maximal concentrations, 11-mer with wound conditioned buffer) of the same molecule?
The value was “additive”.

And the “stimulation of growth in the presence of the 14-Ser peptide” value ([3]; mitogenic signal at maximal concentration plus 14-Ser peptide 0.5 μg/ml, four days)?
Its value is 61%.

Which “appearance of growth-promoting activity after wounding” value (“appearance” below) (BSC-1 cells [4]) does the source give for `O=S(=O)(F)Cc1ccccc1` [PMSF, phenylmethylsulfonyl-fluoride] here?
The value was “prevented”.

How did the “appearance” value (BSC-1 cells [4]) turn out when `Cc1ccc(S(=O)(=O)N[C@@H](CCCCN)C(=O)CCl)cc1.Cl` [TLCK, L-1-chloro-3-(4-tosylamido)-7-amino-2-heptanone-hydrochloride] was run?
The value was “prevented”.

Which “appearance” value (BSC-1 cells [4]) does the source give for aprotinin here?
The value was “prevented”.

B1: α2-macroglobulin (protein, UniProt P01023 24-1474, looked up)
Alpha-2-macroglobulin: SVSGKPQYMVLVPSLLHTETTEKGCVLLSYLNETVTVSASLESVRGNRSLFTDLEAENDVLHCVAFAVPKSSSNEEVMFLTVQVKGPTQEFKKRTTVMVKNEDSLVFVQTDKSIYKPGQTVKFRVVSMDENFHPLNELIPLVYIQDPKGNRIAQWQSFQLEGGLKQFSFPLSSEPFQGSYKVVVQKKSGGRTEHPFTVEEFVLPKFEVQVTVPKIITILEEEMNVSVCGLYTYGKPVPGHVTVSICRKYSDASDCHGEDSQAFCEKFSGQLNSHGCFYQQVKTKVFQLKRKEYEMKLHTEAQIQEEGTVVELTGRQSSEITRTITKLSFVKVDSHFRQGIPFFGQVRLVDGKGVPIPNKVIFIRGNEANYYSNATTDEHGLVQFSINTTNVMGTSLTVRVNYKDRSPCYGYQWVSEEHEEAHHTAYLVFSPSKSFVHLEPMSHELPCGHTQTVQAHYILNGGTLLGLKKLSFYYLIMAKGGIVRTGTHGLLVKQEDMKGHFSISIPVKSDIAPVARLLIYAVLPTGDVIGDSAKYDVENCLANKVDLSFSPSQSLPASHAHLRVTAAPQSVCALRAVDQSVLLMKPDAELSASSVYNLLPEKDLTGFPGPLNDQDNEDCINRHNVYINGITYTPVSSTNEKDMYSFLEDMGLKAFTNSKIRKPKMCPQLQQYEMHGPEGLRVGFYESDVMGRGHARLVHVEEPHTETVRKYFPETWIWDLVVVNSAGVAEVGVTVPDTITEWKAGAFCLSEDAGLGISSTASLRAFQPFFVELTMPYSVIRGEAFTLKATVLNYLPKCIRVSVQLEASPAFLAVPVEKEQAPHCICANGRQTVSWAVTPKSLGNVNFTVSAEALESQELCGTEVPSVPEHGRKDTVIKPLLVEPEGLEKETTFNSLLCPSGGEVSEELSLKLPPNVVEESARASVSVLGDILGSAMQNTQNLLQMPYGCGEQNMVLFAPNIYVLDYLNETQQLTPEIKSKAIGYLNTGYQRQLNYKHYDGSYSTFGERYGRNQGNTWLTAFVLKTFAQARAYIFIDEAHITQALIWLSQRQKDNGCFRSSGSLLNNAIKGGVEDEVTLSAYITIALLEIPLTVTHPVVRNALFCLESAWKTAQEGDHGSHVYTKALLAYAFALAGNQDKRKEVLKSLNEEAVKKDNSVHWERPQKPKAPVGHFYEPQAPSAEVEMTSYVLLAYLTAQPAPTSEDLTSATNIVKWITKQQNAQGGFSSTQDTVVALHALSKYGAATFTRTGKAAQVTIQSSGTFSSKFQVDNNNRLLLQQVSLPELPGEYSMKVTGEGCVYLQTSLKYNILPEKEEFPFALGVQTLPQTCDEPKAHTSFQISLSVSYTGSRSASNMAIVDVKMVSGFIPLKPTVKMLERSNHVSRTEVSSNHVLIYLDKVSNQTLSLFFTVLQDVPVRDLKPAIVKVYDYYETDEFAIAEYNAPCSKDLGNA
How did the “appearance” value (BSC-1 cells [4]) turn out when B1 was run?
Its value is “prevented”.

B2: heparinase I: enzyme heparinase I (Sigma) (protein, UniProt Q05819 22-384, looked up)
Heparin lyase I: QQKKSGNIPYRVNVQADSAKQKAIIDNKWVAVGINKPYALQYDDKLRFNGKPSYRFELKAEDNSLEGYAAGETKGRTELSYSYATTNDFKKFPPSVYQNAQKLKTVYHYGKGICEQGSSRSYTFSVYIPSSFPDNATTIFAQWHGAPSRTLVATPEGEIKTLSIEEFLALYDRMIFKKNIAHDKVEKKDKDGKITYVAGKPNGWKVEQGGYPTLAFGFSKGYFYIKANSDRQWLTDKADRNNANPENSEVMKPYSSEYKTSTIAYKMPFAQFPKDCWITFDVAIDWTKYGKEANTILKPGKLDVMMTYTKNKKPQKAHIVNQQEILIGRNDDDGYYFKFGIYRVGNSTVPVTYNLSGYSETAR
How did the “release of WGF mitogenic activity from cells into the culture media” value (BSC-1 cells [4]; confluent monolayer treated with the enzyme) turn out when B2 was run?
The value was “releases”.
